From patent US10858362B2, “Imidazopyrazinones as PDE1 inhibitors” (H. Lundbeck A/S, priority 2015, dated 2020)

Columns and labels:
Format in all cases: biochemical
[1] = molecular target: PDE1A (Homo sapiens (Human), UniProt P54750); test: PDE1 inhibition assay, PDE1A; conditions: for IC50: 15 nM tritium labelled cAMP; for inhibition at 10 µM: read-out: PDE1A, % inhibition (at 10 μM)
Method: (§1) Reactions were initiated by addition of the cyclic nucleotide substrate, and reactions were allowed to proceed for 1 h at room temperature before being terminated through mixing with 20 μL (0.2 mg) yttrium silicate SPA beads (PerkinElmer).

[2] = molecular target: PDE1B (Homo sapiens (Human), UniProt Q01064); test: PDE1 inhibition assay, PDE1B; conditions: for IC50: 15 nM tritium labelled cAMP
Method: as §1, with “(PerkinElmer). The beads were allowed to settle for 1 h in the dark before the plates were counted in a Wallac 1450 Microbeta counter.” for “(PerkinElmer).”

[3] = molecular target: PDE1C (Homo sapiens (Human), UniProt Q14123); test: PDE1 inhibition assay, PDE1C; conditions: for IC50: 15 nM tritium labelled cAMP
Method: as §1, with “(PerkinElmer). The beads were allowed to settle for 1 h in the dark before the plates were counted in a Wallac 1450 Microbeta counter.” for “(PerkinElmer).”

[4] = molecular target: PDE9 (Homo sapiens (Human), UniProt O76083); test: PDE9 inhibition assay
Method: A PDE9 assay may for example, be performed as follows: The assay is performed in 60 μL samples containing a fixed amount of the relevant PDE enzyme (sufficient to convert 20-25% of the cyclic nucleotide substrate), a buffer (50 mM HEPES7.6; 10 mM MgCl2; 0.02% Tween20), 0.1 mg/ml BSA, 225 pCi of ^3H-labelled cyclic nucleotide substrate, tritium labeled cAMP to a final concentration of 5 nM and varying amounts of inhibitors. Reactions are initiated by addition of the cyclic nucleotide substrate, and reactions are allowed to proceed for one hr at room temperature before being terminated through mixing with 15 μL 8 mg/mL yttrium silicate SPA beads (Amersham). The beads are allowed to settle for one hr in the dark before the plates are counted in a Wallac 1450 Microbeta counter.
In the context of the present invention the assay was performed in 60 μL assay buffer (50 mM HEPES pH 7.6; 10 mM MgCl2; 0.02% Tween20) containing enough PDE9 to convert 20-25% of 10 nM ^3H-cAMP and varying amounts of inhibitors. Following a 1 hr incubation the reactions were terminated by addition of 15 μL 8 mg/mL yttrium silicate SPA beads (Amersham). The beads were allowed to settle for one hr in the dark before the plates were counted in a Wallac 1450 Microbeta counter.

Sequence of PDE1A (P54750 whole entry): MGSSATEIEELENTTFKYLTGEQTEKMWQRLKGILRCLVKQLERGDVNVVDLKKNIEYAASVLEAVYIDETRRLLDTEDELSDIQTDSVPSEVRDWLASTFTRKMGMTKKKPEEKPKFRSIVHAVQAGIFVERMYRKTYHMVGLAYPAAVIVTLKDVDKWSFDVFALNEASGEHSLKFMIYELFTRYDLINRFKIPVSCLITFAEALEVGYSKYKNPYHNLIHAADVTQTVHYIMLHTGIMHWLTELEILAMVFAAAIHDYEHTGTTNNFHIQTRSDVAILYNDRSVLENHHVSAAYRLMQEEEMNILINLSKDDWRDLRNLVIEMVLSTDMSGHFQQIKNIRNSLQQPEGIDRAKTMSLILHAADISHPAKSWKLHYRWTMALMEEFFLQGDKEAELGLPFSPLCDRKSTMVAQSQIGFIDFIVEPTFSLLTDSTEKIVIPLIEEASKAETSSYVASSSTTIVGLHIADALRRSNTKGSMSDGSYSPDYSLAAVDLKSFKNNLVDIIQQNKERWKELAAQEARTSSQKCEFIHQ
Sequence of PDE9 (O76083 whole entry): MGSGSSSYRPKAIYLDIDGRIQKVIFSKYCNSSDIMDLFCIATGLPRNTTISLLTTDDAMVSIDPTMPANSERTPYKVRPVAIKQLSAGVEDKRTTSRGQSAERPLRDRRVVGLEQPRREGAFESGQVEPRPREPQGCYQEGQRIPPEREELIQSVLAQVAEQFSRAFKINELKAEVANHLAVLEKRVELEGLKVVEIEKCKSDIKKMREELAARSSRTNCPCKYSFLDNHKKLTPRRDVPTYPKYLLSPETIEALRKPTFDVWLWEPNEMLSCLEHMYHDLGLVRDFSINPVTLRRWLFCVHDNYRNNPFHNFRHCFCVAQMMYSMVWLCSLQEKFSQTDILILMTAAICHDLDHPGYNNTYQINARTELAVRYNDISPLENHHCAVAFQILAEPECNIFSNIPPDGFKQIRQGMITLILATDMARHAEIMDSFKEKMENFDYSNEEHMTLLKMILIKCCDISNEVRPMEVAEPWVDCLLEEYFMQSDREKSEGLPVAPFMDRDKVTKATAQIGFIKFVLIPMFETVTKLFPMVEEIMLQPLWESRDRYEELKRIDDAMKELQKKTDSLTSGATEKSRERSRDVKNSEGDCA
Sequence of PDE1C (Q14123 whole entry): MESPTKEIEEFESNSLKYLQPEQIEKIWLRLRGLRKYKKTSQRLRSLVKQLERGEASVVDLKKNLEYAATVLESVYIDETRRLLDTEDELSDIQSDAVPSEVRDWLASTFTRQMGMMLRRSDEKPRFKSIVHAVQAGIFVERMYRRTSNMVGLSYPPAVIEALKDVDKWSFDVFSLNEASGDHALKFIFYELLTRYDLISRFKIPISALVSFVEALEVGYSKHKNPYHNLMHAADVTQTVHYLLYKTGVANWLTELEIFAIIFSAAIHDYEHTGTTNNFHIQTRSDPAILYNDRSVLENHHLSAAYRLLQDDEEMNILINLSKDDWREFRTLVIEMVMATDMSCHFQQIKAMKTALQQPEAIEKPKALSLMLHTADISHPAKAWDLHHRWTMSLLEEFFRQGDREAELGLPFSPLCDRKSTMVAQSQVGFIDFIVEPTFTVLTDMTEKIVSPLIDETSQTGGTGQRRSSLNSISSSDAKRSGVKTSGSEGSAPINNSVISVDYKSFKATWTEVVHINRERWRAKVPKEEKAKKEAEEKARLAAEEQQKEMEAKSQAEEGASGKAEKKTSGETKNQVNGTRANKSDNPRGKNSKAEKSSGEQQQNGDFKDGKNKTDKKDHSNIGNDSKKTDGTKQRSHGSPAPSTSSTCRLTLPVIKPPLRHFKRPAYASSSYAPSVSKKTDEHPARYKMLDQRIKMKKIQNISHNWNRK
Sequence of PDE1B (Q01064 whole entry): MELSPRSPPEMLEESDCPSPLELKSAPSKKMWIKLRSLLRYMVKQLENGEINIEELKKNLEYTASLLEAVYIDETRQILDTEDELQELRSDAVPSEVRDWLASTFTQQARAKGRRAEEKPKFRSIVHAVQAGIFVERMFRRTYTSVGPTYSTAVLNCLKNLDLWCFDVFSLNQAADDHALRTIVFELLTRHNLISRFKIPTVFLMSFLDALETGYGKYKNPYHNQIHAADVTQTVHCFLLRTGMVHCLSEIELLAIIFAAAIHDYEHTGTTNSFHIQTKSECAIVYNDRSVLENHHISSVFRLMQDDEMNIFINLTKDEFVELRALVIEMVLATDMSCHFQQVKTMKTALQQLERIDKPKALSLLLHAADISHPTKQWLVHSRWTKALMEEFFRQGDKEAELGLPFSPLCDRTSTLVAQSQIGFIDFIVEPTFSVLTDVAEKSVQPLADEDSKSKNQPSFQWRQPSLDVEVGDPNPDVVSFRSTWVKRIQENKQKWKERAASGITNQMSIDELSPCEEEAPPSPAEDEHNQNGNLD

| Structure (SMILES) | IC50 [1] [nM] | IC50 [2] [nM] | IC50 [3] [nM] | % inhibition of PDE9 at 10 microM [4] [%] | inhibition at 10 µM [4] [%] | further results |
| --- | --- | --- | --- | --- | --- | --- |
| Cc1cn2c([C@@H]3C[C@@H]3C)ncc2c(=O)n1Cc1cccc(F)c1 (single isomer, unassigned; isomer 1) [35, isomer 1] | 193 | 75 | 19 | −11 | – | – |
| Cc1cn2c(C3CCOCC3)ncc2c(=O)n1Cc1ccsc1 [Example 79, 6-methyl-3-(tetrahydro-2H-pyran-4-yl)-7-(thiophen-3-ylmethyl)imidazo[1,5-a]pyrazin-8(7H)-one] | 228 | 112 | 15 | – | 14 | – |
| COc1ccc(Cn2c(C)cn3c(NC4CCOC4)ncc3c2=O)cc1 (stereo not shown) [Example 94, 7-(4-methoxybenzyl)-6-methyl-3-((tetrahydrofuran-3-yl)amino)imidazo[1,5-a]pyrazin-8(7H)-one] | 2520 | – | – | – | -5 | – |
| CCCc1ncc2c(=O)n(Cc3cccc(F)c3)ccn12 [Example 1, 7-(3-Fluorobenzyl)-3-propylimidazo[1,5-a]pyrazin-8(7H)-one] | 801 | 790 | 300 | – | -12 | – |
| COc1ccc(Cn2c(C)cn3c(C4COC(C)C4)ncc3c2=O)cc1 (stereo not shown) [Example 89, 7-(4-methoxybenzyl)-6-methyl-3-(5-methyltetrahydrofuran-3-yl)imidazo[1,5-a]pyrazin-8(7H)-one] | – | 128 | 303 | – | 1 | inhibition at 10 µM [1]: 65% |
| Cc1cn2c(C3C[C@@H]3F)ncc2c(=O)n1Cc1cccc(F)c1 (single isomer, unassigned; isomer 2) [37, isomer 2] | – | – | 55 | 13 | – | – |
| Cc1cn2c(C3CCOCC3)ncc2c(=O)n1Cc1ccccc1C#N [Example 64, 2-((6-methyl-8-oxo-3-(tetrahydro-2H-pyran-4-yl)imidazo[1,5-a]pyrazin-7(8H)-yl)methyl)benzonitrile] | 624 | 528 | 103 | – | 11 | – |
| Cc1cn2c([C@H]3CCCOC3)ncc2c(=O)n1Cc1cccc(F)c1 (single isomer, unassigned; isomer 2) [100, isomer 2] | 333 | 93 | 33 | −21 | – | – |
| Cc1cn2c(C3C[C@@H]3F)ncc2c(=O)n1Cc1cccc(F)c1 (single isomer, unassigned; isomer 1) [37, isomer 1] | – | – | 345 | −2 | – | – |
| Cc1cn2c(C3C[C@H]3F)ncc2c(=O)n1Cc1cccc(F)c1 (single isomer, unassigned; isomer 2) [38, isomer 2] | – | – | 153 | 2 | – | – |
| Cc1cn2c([C@@H]3CCO[C@@H]3C)ncc2c(=O)n1Cc1cccc(F)c1 (single isomer, unassigned; isomer 1) [36, isomer 1] | 152 | 59 | – | 3 | – | – |
| Cc1cn2c(C3CCOCC3)ncc2c(=O)n1C(C)C [Example 61, 7-isopropyl-6-methyl-3-(tetrahydro-2H-pyran-4-yl)imidazo[1,5-a]pyrazin-8(7H)-one] | – | – | – | – | 4 | inhibition at 10 µM [1]: 4%; inhibition at 10 µM ([2]; read-out: PDE1B, % inhibition (at 10 μM)): 50%; inhibition at 10 µM ([3]; read-out: PDE1C, % inhibition (at 10 μM)): 47% |
| O=c1c2cnc(C3CCOCC3)n2cc(Br)n1Cc1cccc(F)c1 [Example 15, 6-Bromo-7-(3-fluorobenzyl)-3-(tetrahydro-2H-pyran-4-yl)imidazo[1,5-a]pyrazin-8(7H)-one] | 58 | 115 | 15 | – | 15 | – |
| O=c1c2cnc(C3CC3)n2ccn1CC1CCCCCC1 [Example 13, 7-(Cycloheptylmethyl)-3-cyclopropylimidazo[1,5-a]pyrazin-8(7H)-one] | 87 | 50 | 62 | – | 7 | – |
| CCCn1c(C)cn2c(C3CCOCC3)ncc2c1=O [Example 60, 6-methyl-7-propyl-3-(tetrahydro-2H-pyran-4-yl)imidazo[1,5-a]pyrazin-8(7H)-one] | 810 | 221 | 423 | – | -13 | – |
| O=c1c2cnc(C3CCOCC3)n2ccn1CC1CCCC1 [Example 10, 7-(Cyclopentylmethyl)-3-(tetrahydro-2H-pyran-4-yl)imidazo[1,5-a]pyrazin-8(7H)-one] | – | – | 79 | – | 8 | inhibition at 2 µM ([1]; read-out: PDE1A, % inhibition (at 2 μM)): 73%; inhibition at 2 µM ([2]; read-out: PDE1B, % inhibition (at 2 μM)): 88% |

| Structure (SMILES) | IC50 [1] [nM] | IC50 [2] [nM] | IC50 [3] [nM] | % inhibition of PDE9 at 10 microM [4] [%] | inhibition at 10 µM [4] [%] | further results |
| --- | --- | --- | --- | --- | --- | --- |
| Cc1cn2c(C3CCOCC3)ncc2c(=O)n1Cc1ccc2c(c1)OCO2 [Example 50, 7-(benzo[d][1,3]dioxol-5-ylmethyl)-6-methyl-3-(tetrahydro-2H-pyran-4-yl)imidazo[1,5-a]pyrazin-8(7H)-one] | 50 | 16 | 38 | – | 12 | – |
| CCCc1ncc2c(=O)n(Cc3ccc(OC)cc3)c(C)cn12 [Example 56, 7-(4-methoxybenzyl)-6-methyl-3-propylimidazo[1,5-a]pyrazin-8(7H)-one] | 65 | 21 | 43 | – | 7 | – |
| Cc1ccc(Cn2c(C)cn3c(C4CCOCC4)ncc3c2=O)cc1 [Example 22, 6-Methyl-7-(4-methylbenzyl)-3-(tetrahydro-2H-pyran-4-yl)imidazo[1,5-a]pyrazin-8(7H)-one] | 75 | 28 | 67 | – | 50 | – |
| COc1ccc(Cn2c(C)cn3c([C@@H]4CCO[C@@H]4C)ncc3c2=O)cc1 (single isomer, unassigned; isomer 1) [55, isomer 1] | – | 10 | – | 18 | – | – |
| Cc1cn2c(C3C[C@H]3F)ncc2c(=O)n1Cc1cccc(F)c1 (single isomer, unassigned; isomer 1) [38, isomer 1] | – | – | – | −1 | – | – |
| COc1ccc(Cn2c(C)cn3c([C@H]4CCO[C@H]4C)ncc3c2=O)cc1 (single isomer, unassigned; isomer 4) [55, isomer 4] | – | 208 | – | 1 | – | – |
| COc1ccc(Cn2c(C)cn3c([C@@H]4CCO[C@H]4C)ncc3c2=O)cc1 (single isomer, unassigned; isomer 3) [55, isomer 3] | – | 3 | – | – | – | – |
| COc1cc(Cn2c(C)cn3c(C4CCOCC4)ncc3c2=O)ccc1Cl [Example 48, 7-(4-chloro-3-methoxybenzyl)-6-methyl-3-(tetrahydro-2H-pyran-4-yl)imidazo[1,5-a]pyrazin-8(7H)-one] | – | – | – | – | 10 | inhibition at 1 µM ([2]; read-out: PDE1B, % inhibition (at 1 μM)): 54%; inhibition at 1 µM ([3]; read-out: PDE1C, % inhibition (at 1 μM)): 34% |
| COc1ccc(Cn2c(C)cn3c([C@@H]4CCO[C@H]4C)ncc3c2=O)cc1 (single isomer, unassigned; isomer 2) [55, isomer 2] | – | 64 | – | −13 | – | – |
| COc1ccc(Cn2c(C)cn3c(C(C)C)ncc3c2=O)cc1 [Example 77, 3-isopropyl-7-(4-methoxybenzyl)-6-methylimidazo[1,5-a]pyrazin-8(7H)-one] | 13 | 7 | 20 | – | – | – |
| COc1ccc(Cn2c(C)cn3c(C4(C)CCN(C)CC4)ncc3c2=O)cc1 [Example 73, 3-(1,4-dimethylpiperidin-4-yl)-7-(4-methoxybenzyl)-6-methylimidazo[1,5-a]pyrazin-8(7H)-one] | 1920 | 1450 | 2450 | – | – | – |
| COc1ccc(Cn2c(C)cn3c(N4CCOC[C@@H]4C)ncc3c2=O)cc1 [Example 96, (S)-7-(4-methoxybenzyl)-6-methyl-3-(3-methylmorpholino)imidazo[1,5-a]pyrazin-8(7H)-one] | 48 | 38 | 51 | – | – | – |
| COc1ccc(Cn2c(C)cn3c(C(C)(C)F)ncc3c2=O)cc1 [Example 87, 3-(2-fluoropropan-2-yl)-7-(4-methoxybenzyl)-6-methylimidazo[1,5-a]pyrazin-8(7H)-one] | – | – | – | – | 10 | – |
| Cc1cn2c([C@@H]3CCO[C@H]3C)ncc2c(=O)n1Cc1cccc(F)c1 (single isomer, unassigned; isomer 3) [36, isomer 3] | 77 | 21 | – | −10 | – | – |
| Cc1cn2c([C@H]3CCO[C@@H]3C)ncc2c(=O)n1Cc1cccc(F)c1 (single isomer, unassigned; isomer 2) [36, isomer 2] | 282 | 107 | – | 11 | – | – |
